Square brackets hold non-standard residues; d marks the D form. Ends that are not written are not given here.
Tests used:
Type in all cases: cell-based
[1] = system: E-Cadherin (E-Cad); assay: Western blot of epithelial marker E-cadherin in transformed cells, day 5; details: cells exposed only to 4-OHT
Procedure: (§1) FIG. 1A. REDOX effects promoted by peptidyl di-copper complex. (A) Oxidized (λex=[…]) and reduced (λex=[…]) roGFP2 signals 30 minutes after exposure to the metallocomplex (Day 1) and at the final of the experiment (Day 5) were measured and the oxidized/reduced ratio was obtained using ImageJ (shown as histogram). FIG. 1B. Representative images of MCF-10AER/cSrc transformation after treatment with 4-hydroxy-tamoxifen (1 μM) registered by Lionheart (phase contrast). FIG. 1C. Western blot analysis of E-Cadherin (E-Cad), Fibronectin (FN1), and Vimentin (Vim) in MCF-10AER/cSrc transformed cells (5 days after 4-OHT treatment). CATm1-peptidyl di-copper complex, as previously reported, DNK01-peptidyl di-copper complex with D-amino acids, sd-single dose, cd-daily doses.
(§2) Experiments were conducted during development of embodiments herein to measure the expression of EMT markers in this system at the end of the experiment (day 5). […] But in cells exposed only to 4-OHT, the levels dropped to almost 50% in comparison to the control cells. In the same FIGURE, the mesenchymal markers Vimentin and Fibronectin were also probed by western blot. […] Transformed cells, 4-OHT treated, expressed 3 times compared to control, and cells also treated with peptides in single doses.

[2] = system: Fibronectin (FN1); assay: Western blot of mesenchymal marker Fibronectin in transformed cells, day 5; details: 4-OHT treated only
Procedure: as §1, §2

[3] = system: MCF-10A ER/cSrc/NLS-Orp1-roGFP2 cells; assay: Nuclear ROS by NLS-roGFP2-Orp1 oxidized/reduced ratio after 4-OHT exposure; details: peptide 250 μM, CuSO4 500 μM; for ROS levels: day 5
Procedure: as §1
Lyophilized peptides were resuspended in MOPS buffer (30 mM, pH 7.5) to a concentration of 5 mM; a 50 mM copper solution was prepared in the same buffer. Both solutions were mixed in a 1:2 (peptide:copper) concentration 30 minutes before applying them to the cell culture. The final concentration of the complex in the cell culture was peptide at 250 μM and CuSO4 at 500 μM. The culture was monitored by measuring the ratio I(405/525)/I(488/525) given by the NLS-roGFP2-Orp1.
Exposure to 4-hydroxytamoxifen (4-OHT) transforms MCF-10A ER/cSrc/NLS-Orp1-roGFP2 cells into a tumorous cell line due to the oxidation of the nuclear compartment. Experiments were conducted by measuring the nuclear ROS in these cells. Probe oxidation status was monitored for 5 days after exposure to 4-OHT (FIG. 1A). […] It was not sufficient to keep the ROS levels as low as on day 1. This was due to a disruption of the complex and accumulation of free copper in the media.

[4] = system: MCF-10AER/cSrc; assay: Transformation (spiked shape) of cells after 4-hydroxy-tamoxifen, phase contrast imaging; details: after 4-OHT (1 μM); either in single dose or every day
Procedure: as §1
Another important observation was the delayed transformation of the cells in the system. After exposure to 4-OHT, cells acquired a spiked shape as soon as day 1 to day 2 (FIG. 1B). This process was delayed for two days when the cells were exposed to Cu^2+-CATm1 or Cu^2+-DNK01 either in single dose or every day.

Row | Substance | E-cadherin levels in comparison to the control cells [1] [%] | Fibronectin expression compared to control [2] [times] | levels of nuclear oxidants ([3]; day 1, right after exposure (30 minutes), 4-OHT treated cells) | ROS levels ([3]; presented everyday with fresh media) | ROS levels ([3]; single dose in day 1) | delay of transformation of the cells (spiked shape) [4]
1 | 4-hydroxytamoxifen [4-OHT] | ~50 | 3 |  |  |  | 
2 | PHYKHRLH (also: di-copper complex) [CATm1, short peptidyl di-copper complex developed to mimic catalase, as previously reported] |  |  | lower levels of nuclear oxidants | keep the ROS in lower levels | ROS levels increase | two
3 | dPdHdYdKdHdRdLdH ([dP][dH][dY][dK][dH][dR][dL][dH]; also: di-copper complex) [DNK01, peptidyl di-copper complex with D-amino acids] |  |  |  |  |  | two

From patent US20240287477A1, “CATALASE MIMETIC PEPTIDES” (Northwestern University, priority 2023, published 2024)
